According to paper PMC8113213, “Physiologically based kinetic modelling based prediction of in vivo rat and human acetylcholinesterase (AChE) inhibition upon exposure to diazinon” (Archives of Toxicology, 2021):
Read-outs that look alike come from different tables or passages of the source.

What was measured:
CYP450 = assay: in vitro; assay type: in vitro ADME, human; conditions: for Km: human
Protocol: The in vitro incubations for investigating CYP450-mediated biotransformation of DZN were performed using rat and human liver microsomes based on the method described by Sams et al. ([2004]) and Smith et al. ([2011]) with some modifications. Preliminary studies were carried out to optimize both incubation time and microsomal protein concentration, to define conditions at which metabolism was linear with respect to time and the amount of microsomal protein (data not shown) to be used for further kinetic studies. The final incubations contained 50 mM Tris–HCl (pH 7.4), 5 mM MgCl2, 1 mM EDTA (as an A-esterase PON1 inhibitor) (Bizoń and Milnerowicz [2018]), 50 µM iso-OMPA (as a B-esterases inhibitor) (Lane et al. [2006]), 1 mM NADPH, and DZN at final concentrations of 1, 2.5, 5, 10, 25, 50, 100 and 250 µM (added from 100 times concentrated stock solutions in methanol). […] Addition of esterase inhibitors EDTA and iso-OMPA has been commonly applied when studying CYP450-mediated conversion of organophosphate (OP) pesticides in liver microsomal incubations for determining kinetic parameters for their CYP450-mediated pathways (Buratti et al. [2005]; Dadson et al. [2013]; Ellison et al. [2012]; Foxenberg et al. [2007]; Poet et al. [2003]; Smith et al. [2011]). Based on previous studies, CYP450-mediated activities are not adversely affected by the addition of these inhibitors (1 mM EDTA and 50 µM iso-OMPA) to the microsomal incubations (Buratti et al. [2003]; Rasmussen [2012]). After 1 min preincubation in a 37 °C water bath, 2.5 µl of human or rat liver microsomes (final concentration 0.25 mg microsomal protein/ml) were added to initiate the reaction. The total incubation mixture was 200 µl. Control incubations were carried out by replacing NADPH with buffer. The reaction was terminated after 2.5 min by adding 200 µl ice-cold ACN. After the incubation, samples were centrifuged at 16000 g (4℃) for 5 min, and supernatants of rat samples were further diluted 2 × in a mixture of ACN and 50 mM Tris–HCl (pH 7.4) (ratio 1:1, v/v). At the end, both diluted rat sample supernatants and undiluted human sample supernatants were analysed by LC–MS/MS for quantification of metabolite formation.
The chromatographic separations were conducted on a Kinetex® 1.7 µm Phenyl-Hexyl 100 Å LC column (100 × 2.1 mm). The injection volume was 1 µl at a flow rate of 0.3 ml/min. The temperature of the column was kept at 40℃. The mobile phase A consisted of ultrapure water with 0.1% (v/v) formic acid, and mobile phase B consisted of acetonitrile (ACN) with 0.1% (v/v) formic acid. […] The instrument was used in positive mode with multiple reaction monitoring (MRM). The optimized acquisition parameters for DZN, DZO and the metabolite IMHP are listed in Supplementary data I. […]

RBC AChE = conditions: ref USEPA 2016, cited from earlier work; for Reported BMDL10 from EPA (pups): RBC AChE inhibition in female rat pups (PND11)
brain and RBC AChE = conditions: cited from earlier work
[1] = human, cited from earlier work
[2] = human; ref Poklis et al. 1980; cited from earlier work

In the case of `CCOP(=S)(OCC)Oc1cc(C)nc(C(C)C)n1` [DZN, O,O-diethyl O-2-isopropyl-6-methylpyrimidin-4-yl phosphorothioate], the “Vmax DZN to DZO” value (CYP450; human liver microsomes) is reported as 0.187 nmol/min/mg microsomal protein, the “Vmax DZN to IMHP” value (CYP450; human liver microsomes) is reported as 0.665 nmol/min/mg microsomal protein and the Km (CYP450; pH 7.4, Km DZN to DZO, human liver microsomes) is reported as 59.6 µM. For the same compound, the Km (CYP450; pH 7.4, human liver microsomes, read-out: Km DZN to IMHP) was 16.3 µM, the “Reported BMDL10 from EPA (pups)” value (RBC AChE) was 3 mg/kg bw and the “Reported BMDL10 from EPA (pups)” value (RBC AChE; listed as Diazinon) was 3.0 mg/kg bw. The “BMDL10 for inhibition of RBC AChE” value (RBC AChE; male adult rats, oral DZN) was 4.804 mg/kg bw/day, the “Reported BMDL10 from EPA (adult rat)” value (RBC AChE) was 4.8 mg/kg bw and the “overall NOAEL from three rat studies” value (brain and RBC AChE; EFSA, ref EFSA 2006) was 2.5 mg/kg bw. For the same compound, the “LOAEL, inhibition of brain and RBC AChE activity in female rat” value (brain and RBC AChE; JMPR, ref JMPR 2016) was 25 mg/kg bw, the “NOAEL, acute (neuro)toxicity study in rats” value (brain and RBC AChE; JMPR, ref JMPR 2016) was 2.5 mg/kg bw and the “Reported NOAEL from EFSA and JMPR (adult rat)” value (brain and RBC AChE; ref EFSA 2006, JMPR 2016) was 2.5 mg/kg bw. The “fractional absorption (fa)” value ([1]; oral, ref Garfitt et al. 2002) was 0.66, the “first-order rate constant for absorption from the intestine into the liver (KaI)” value ([1]; ref Poet et al. 2004) was 0.59 h⁻¹ and the “first-order rate constant for absorption from the stomach into the liver (KaS)” value ([1]; ref Poet et al. 2004) was 0.32 h⁻¹. For the same compound, the “first-order rate constant for transfer from the stomach into the intestine (KsI)” value ([1]; ref Poet et al. 2004) was 0.48 h⁻¹ and the “toxic dose level reported” value [2] was 293 mg/kg bw.
